Consider four compounds from article PMC8301926 (Biomolecules, 2021).

Test [1] deals with recombinant human MAO-A (hMAO-A). Also noted: method as in earlier work. The note with it: ref 27 (Dittman et al., 2004); read-out: IC50, recombinant human MAO-A (literature); cited from earlier work.
Test [2] deals with T1, recombinant human monoamine oxidase B (hMAO-B) (Homo sapiens, UniProt P27338).
T1 sequence (P27338 1-520): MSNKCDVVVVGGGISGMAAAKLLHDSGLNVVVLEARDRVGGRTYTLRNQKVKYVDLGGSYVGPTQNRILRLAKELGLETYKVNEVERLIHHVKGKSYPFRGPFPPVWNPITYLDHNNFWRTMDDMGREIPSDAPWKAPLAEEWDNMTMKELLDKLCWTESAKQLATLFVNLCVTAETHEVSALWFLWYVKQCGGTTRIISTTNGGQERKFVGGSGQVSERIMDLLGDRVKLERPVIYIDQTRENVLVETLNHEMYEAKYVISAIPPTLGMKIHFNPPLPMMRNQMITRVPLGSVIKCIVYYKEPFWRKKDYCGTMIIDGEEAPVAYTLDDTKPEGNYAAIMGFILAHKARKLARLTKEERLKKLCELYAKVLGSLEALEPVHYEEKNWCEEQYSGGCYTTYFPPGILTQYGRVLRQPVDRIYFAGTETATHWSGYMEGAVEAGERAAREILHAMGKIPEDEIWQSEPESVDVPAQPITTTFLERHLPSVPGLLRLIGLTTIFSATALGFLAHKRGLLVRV
Put plainly: hMAO-B inhibition, MAO-Glo chemiluminescent assay. The settings on record: mean ± SD of triplicate experiments. The class given is biochemical.

Test [3] concerns the target T2, recombinant human monoamine oxidase A (hMAO-A) (Homo sapiens, UniProt P21397).
T2 sequence (P21397 1-527): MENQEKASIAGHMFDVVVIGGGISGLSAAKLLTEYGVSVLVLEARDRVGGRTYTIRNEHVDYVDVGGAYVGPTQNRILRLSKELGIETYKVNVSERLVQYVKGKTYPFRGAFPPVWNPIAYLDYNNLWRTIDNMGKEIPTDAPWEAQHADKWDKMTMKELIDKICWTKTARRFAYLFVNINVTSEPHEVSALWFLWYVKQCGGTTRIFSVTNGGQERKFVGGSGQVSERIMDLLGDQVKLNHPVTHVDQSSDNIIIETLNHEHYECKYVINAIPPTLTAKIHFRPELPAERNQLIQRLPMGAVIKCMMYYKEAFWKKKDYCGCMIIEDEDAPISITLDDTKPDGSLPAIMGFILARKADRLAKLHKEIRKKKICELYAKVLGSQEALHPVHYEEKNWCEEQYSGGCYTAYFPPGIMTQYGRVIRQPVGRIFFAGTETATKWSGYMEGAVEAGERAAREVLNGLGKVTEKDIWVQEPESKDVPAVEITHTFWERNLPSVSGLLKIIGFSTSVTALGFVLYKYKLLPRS
Description: hMAO-A inhibition, MAO-Glo chemiluminescent assay. The format is biochemical. The note with it: for IC50: mean ± SD of triplicate experiments; for SI (selectivity index): ratio of the IC50 value for hMAO-A inhibition to that for hMAO-B inhibition.

Test [4] deals with T1, recombinant human monoamine oxidase B (hMAO-B). Put plainly: hMAO-B enzyme kinetics (Lineweaver-Burk, Dixon, secondary plots). The format is biochemical. The note with it: for Ki: from secondary plots; for Inhibition Type, hMAO-B: Lineweaver-Burk and Dixon plots.
Test [5] has as its target T2, recombinant human monoamine oxidase A (hMAO-A). Put plainly: hMAO-A enzyme kinetics (Lineweaver-Burk, Dixon, secondary plots). The format is biochemical. The settings on record: for Ki: from secondary plots; for Inhibition Type, hMAO-A: Lineweaver-Burk and Dixon plots.
Test [6] has as its target T3, human M4 muscarinic acetylcholine receptor (hM4R) (Homo sapiens, UniProt P08173).
T3 construct: host or cells: CHO cells
T3 sequence (P08173 1-479): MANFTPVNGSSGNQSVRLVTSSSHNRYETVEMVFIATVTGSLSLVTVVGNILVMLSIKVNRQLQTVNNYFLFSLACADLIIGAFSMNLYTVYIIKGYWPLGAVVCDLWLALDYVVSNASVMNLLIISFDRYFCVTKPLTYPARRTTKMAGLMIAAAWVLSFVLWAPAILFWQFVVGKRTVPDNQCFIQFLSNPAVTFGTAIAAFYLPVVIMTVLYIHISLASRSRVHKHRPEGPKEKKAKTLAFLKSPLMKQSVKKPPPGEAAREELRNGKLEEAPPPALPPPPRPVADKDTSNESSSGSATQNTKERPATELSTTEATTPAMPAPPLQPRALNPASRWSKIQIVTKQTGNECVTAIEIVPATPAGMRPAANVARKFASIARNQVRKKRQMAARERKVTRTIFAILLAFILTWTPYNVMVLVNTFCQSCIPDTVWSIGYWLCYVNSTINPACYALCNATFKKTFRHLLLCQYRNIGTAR
Description: M4 (h) functional GPCR assay, antagonist effect, cAMP HTRF. The class given is cell-based. The note with it: CHO cells, cAMP; read-out: Reference IC50, M4 reference antagonist. The method, then:
The cellular and nuclear receptor functional assays were carried out at Eurofins Cerep (Le Bois I’ Eveque, France) following the in-house protocols (catalog items G029-1262, G029-1474, G030-1658, G030-1659, G031-1243, G031-1244, G032-1670, G032-1671, G033-4217, and G033-4212). The experimental methods for the assays were as described in the previous reports and the general methodology is summarized in the Supplementary Information Table S1. Recombinant human Chinese hamster ovary (CHO) cells and rat basophilic leukemic (RBL) cells were transfected with the GPCR genes of interest (hM1R, hM2R, hM3R, hM4R, and hM5R). The functional assay provided the readouts based on the measurements of calcium ion mobilization (for the Gαq/11-coupled receptors) and cAMP level (for the Gαi/o-coupled receptors).
Stable CHO cells expressing the transfected cDNA of human M2 receptors were suspended in a medium containing HBSS buffer complemented with 20-mM HEPES buffer (pH 7.4) and 500-µM IBMX, whereas the stable human M4 receptor cloned CHO cells were distributed in HBSS buffer with 20-mM HEPES/NaOH (pH 7.4), 70-mM NaCl, 5.33-mM KCl, 1.25-mM CaCl2, 0.5-mM MgCl2, 0.41-mM MgSO4, 0.441-mM KH2PO4, 0.3-mM Na2HPO4, 0.1% glucose, and 500-µM IBMX. […] The cAMP level was calculated as the ratio of the signal measured at 665 nm to that measured at 620 nm. […]
Assay Source Stimulus Incubation Measured Detection References […]
For orientation: TR-FRET usually uses a lanthanide donor and a delayed reading to cut background.

Values joined by “and” are separate entries in the source; they are usually repeats but may differ in a detail not shown here. Equal entries are not always repeated. Where two headings read alike, the source gives them in different places. Some results are limits rather than exact numbers.

As to `C[C@H]1COC2=C1C(=O)C(=O)c1c2ccc2c1CCCC2(C)C` [Cryptotanshinone], the IC50 in test [1] is 84 µM; in test [2] it was 23.1 ± 2.1 µM; in test [3] (IC50, hMAO-A) it was < 10 µM and 8.7 µM. Besides, the “SI (selectivity index)” value in test [3] is on record as 0.38. Further, the Ki in test [4] (Kic, hMAO-B) was 9.33 ± 0.1 µM; in test [5] (Kic, hMAO-A) it was 4.99 ± 0.34 µM; in test [5] (Kiu, hMAO-A) it was 38.1 ± 1.79 µM. In addition, the “Inhibition Type, hMAO-B” value in test [4] is “Competitive”; in test [4] (listed as 3), “competitive enzyme inhibition”. The entries for the “Inhibition Type, hMAO-A” value in test [5] and in test [5] (listed as 3) were “Mixed” and “mixed-mode”, respectively.
As to `Cc1cccc2c3c(ccc12)C1=C(C(=O)C3=O)[C@@H](C)CO1` [Dtan I, dihydrotanshinone I, reference compound], the IC50 in test [1] is 23 µM.
`CCOC(=O)c1c(C)[nH]c2ccc3c(c12)CN1CCc2cc(OC)ccc2C1O3` (stereo not shown) [PD 102807, reference compound]: the IC50 in test [6] amounted to 36 nM.
Take `Cc1coc2c1C(=O)C(=O)c1c-2ccc2c1CCCC2(C)C` [Tanshinone IIA]: the IC50 in test [1] is greater than 400 µM; in test [2], < 25 µM and 17.5 µM; in test [3] (read-out: IC50, hMAO-A), < 10 µM and 6.08 µM. Moreover, the “SI (selectivity index)” value in test [3] is 0.35. Moreover, the “Inhibition Type, hMAO-B” value was “Non-competitive” in test [4] and “noncompetitive inhibition” in test [4] (listed as 2). In addition, the Ki in test [4] (read-out: Kic, hMAO-B) is 12.9 ± 1.14 µM; in test [4] (read-out: Kiu, hMAO-B), 13.7 ± 0.58 µM; in test [5] (read-out: Kic, hMAO-A), 0.72 ± 0.13 µM; in test [5] (read-out: Kiu, hMAO-A), 2.74 ± 0.37 µM. In addition, the “Inhibition Type, hMAO-A” value in test [5] is “Mixed”; in test [5] (listed as 2), “mixed-mode”.

One may read the IC50 as the midpoint of a concentration-inhibition curve.
